# From US20230310474A1, “CORONAVIRUS TREATMENT COMPOSITION AND METHOD” (Cleveland State University, priority 2022, published 2023)
# Tests used:
# [1] = test system: HCoV-OC43; experiment: microbe, parasite or virus in culture; assay type: cell-based
# [2] = test system: SARS-CoV-2; experiment: SARS-CoV-2 high-throughput screen (HTS) cytopathic effect assay in Vero 76 cells; assay type: cell-based; conditions: MOI 0.1, 48 hours
# [3] = test system: human sialidases; conditions: cited from earlier work
# [4] = test system: THP-1 cells; experiment: Cytokine production in THP-1 cells (human cytokine bead array); assay type: cell-based
# Experimental: Mouse blood samples were obtained at indicated time points, and cytokines in the serum were determined using a mouse cytokine bead array designed for inflammatory cytokines (552364, BD Biosciences, San Jose, CA). Human cytokines in cell culture derived supernatants were determined using a human cytokine bead array designed for inflammatory cytokines (551811, BD Biosciences).
# (§1) To determine whether Neu5Ac2en-OAcOMe affects post-entry steps of the viral life cycle, THP-1 cells were infected with HCoV-OC43 for two hours and then treated the cells with Neu5Ac2en-OAcOMe. Intracellular viral RNA and viral titers were quantified in the cell culture supernatants 72 hours post-infection.
# [5] = test system: HCoV-OC43; experiment: HCoV-OC43 replication in epithelial cell lines (HEK293T, HeLa, BSC-1); assay type: cell-based
# Experimental: Cells were fixed with 4% paraformaldehyde in phosphate buffered saline (PBS) at room temperature for 15 min and then permeabilized with 1% Triton X-100 in PBS at room temperature for 15 min. Immunofluorescence staining was performed. Images were acquired with an EVOS FL Auto Imaging System (Thermo Fisher Scientific).
# Next, it was tested whether the observed efficacy of Neu5Ac2en-OAcOMe was not restricted to THP-1 cells. The efficacy of Neu5Ac2en-OAcOMe was evaluated in three epithelial cell lines (HEK293T cells, HeLa cells and BSC-1 cells). […] Therefore, cytosolic sialidase inhibitors represent a potential treatment for coronavirus infections.
# [6] = molecular target: T1, Neu1 (Homo sapiens, UniProt Q99519); experiment: Neuraminidase (sialidase) activity assay with 4-MU-NANA in HEK293T cells transfected with Neu1; assay type: cell-based
# T1 construct: expressed in transfected cells; host or cells: HEK293T
# [7] = test system: THP-1 cells; experiment: MTS cell viability assay in THP-1 cells; assay type: cell-based, human; conditions: all tested concentrations
# Experimental: FIGS. 3A-J illustrate that Neu5Ac2en-OAcOMe exerts anti-viral effects in human cell models. […] (upper) or 37° C. (lower). Intracellular viral RNA was analyzed by RT-qPCR. FIGS. 3B-D show HCoV-OC43 (MOI = 2) infected THP-1 cells were treated with a gradient concentration of Neu5Ac2en-OAcOMe for 72 hours. Intracellular viral RNA (FIG. 3B, upper), extracellular progeny virus yields (FIG. 3B, lower and FIG. 3C) and intracellular nucleocapsid (FIG. 3D) were analyzed by RT-qPCR, TCID50 assay and immunoblot, respectively. The inhibitory and cytotoxic curves (3C) were obtained using the data from the lower panel in FIG. 3B and cell viability measured by MTS assay. CellTiter 96® AQueous One Solution Cell Proliferation Assay (MTS) (Promega, G3582) was performed as instructed in the kit manual. […] Sialylation was detected with biotin-MAA and biotin-SNA lectins. […] Nucleocapsid in the cell lysates was measured by western blot. […] The levels of intracellular nucleocapsid were analyzed by immunofluorescence (48 hours post-infection). […] ND, not detected. […]
# as §1
# [8] = Intracellular conversion of membrane-permeable inhibitor; conditions: upon entering into the cells
# [9] = test system: HCoV-OC43; experiment: HCoV-OC43 binding and entry assay in pretreated THP-1 cells (4° C. or 37° C.); assay type: cell-based; conditions: THP-1 cells pretreated two hours; 4° C. one hour or 37° C. two hours post-infection
# Experimental: Whether Neu5Ac2en-OAcOMe acts on the virus binding and entry steps of the viral life cycle was evaluated. THP-1 cells were treated with Neu5Ac2en-OAcOMe for two hours and then infected the cells with HCoV-OC43 at 4° C. or 37° C. Cells incubated at 4° C. were collected one hour post-infection and cells incubated at 37° C. were collected two hours post-infection. Intracellular viral RNA was quantified by RT-qPCR.
# [10] = test system: SARS-CoV-2; assay type: in vivo, K18-hACE2 transgenic mice; conditions: K18-hACE2 mice, IP on days 0-4, 1 x 10^4 PFU
# [11] = test system: HCoV-OC43
# [12] = test system: SARS-CoV-2; conditions: several clinical trials; cited from earlier work
# [13] = HEK293T cells, HeLa cells and BSC-1 cells
# [14] = HEK293T cells with Neu1 expression vector, 30 min at room temperature
compound,measurement,setting,value
"CC1(C)Cc2c(sc(NC(=S)NC(=O)c3ccccc3)c2C(=O)O)CO1 [CID-1067700, reference compound]",HCoV-OC43 release,[1],moderately inhibited
CC(=O)N[C@H]1[C@H]([C@H](O)[C@H](O)CO)OC(C(=O)O)=C[C@@H]1N=C(N)N [zanamivir],antiviral activity against HCoV-OC43 (viral transcripts and viral titer),[1],did not show inhibitory activity
same,protection activity (cell viability post SARS-CoV-2 infection),[2],did not show inhibitory activity
same,effect on human sialidases,[3],almost no effect
COC(=O)C1=CC(OC(C)=O)[C@@H](NC(C)=O)C([C@H](OC(C)=O)[C@@H](COC(C)=O)OC(C)=O)O1 (stereo partly drawn) [Neu5Ac2en-OAcOMe],N protein levels,[1],significantly decreased
same,antiviral activity against HCoV-OC43 (viral transcripts and viral titer),[1],showed the highest antiviral activities
same,sialylation of HCoV-OC43 N protein,[1],increased sialylation
same,viral replication at the level of viral transcripts and viral titers,[1],significantly decreased viral replication
same,IC50,"[1]; Betacoronavirus 1, OC43, THP-1, read-out: IC50 of viral replication (viral titers in cell culture supernatants)",13.7 µM
same,protection activity (cell viability post SARS-CoV-2 infection),[2],showed the highest protection activities
same,cytokine production,[4],did not induce cytokine production
same,viral replication by immunofluorescence staining for HCoV-OC43-N protein,"[5]; BSC-1 cells, MOI 0.1, 48 hours post-infection",effectively suppressed viral replication
same,N protein levels in epithelial cell lines,[5]; [13],significantly decreased
same,viral replication in epithelial cell lines,[5]; [13],inhibited viral replication in all three cell lines
same,cell surface sialidase activity,[6]; [14],did not affect
same,total sialidase activity (total cell lysate),[6]; [14],significantly decreased
same,toxicity in MTS assay,[7],non-toxic at all tested concentrations
same,intracellular conversion,[8],readily converted to the corresponding Neu5Ac2en intracellularly
same,virus binding and entry steps (intracellular viral RNA),[9],did not affect virus binding and entry steps
same,SARS-CoV-2-induced mortality,[10],significant protection
same,body weight loss,[10],significant protection
same,body weight,"[11]; after HCoV-OC43 infection, 20 mg/kg IP",significantly lower in vehicle-treated mice than in Neu5Ac2en-OAcOMe-treated mice
same,brain and lung tissue damage (H&E staining),[11]; day 5 post-infection,improved
same,serum IL-6 level,[11]; day 5 post-infection,substantial decrease
same,serum TNF-α level,[11]; day 5 post-infection,substantial decrease
same,"HCoV-OC43 viral replication in the lungs, blood and brain","[11]; day 5 post-infection, 20 mg/kg IP",suppression of HCoV-OC43 viral replication
same,toxic signs and symptoms,"[11]; in vivo, all treatment period",No toxic signs and symptoms were observed
same,survival,"[11]; seven-day-old C57BL/6 pups, 20 mg/kg IP, 10 days observation",50%
CCOC(=O)C1=C[C@@H](OC(CC)CC)[C@H](NC(C)=O)[C@@H](N)C1 [oseltamivir],antiviral activity against HCoV-OC43 (viral transcripts and viral titer),[1],did not show inhibitory activity
same,protection activity (cell viability post SARS-CoV-2 infection),[2],did not show inhibitory activity
same,effect on human sialidases,[3],almost no effect
same,efficacy in treating SARS-CoV-2 infection,[12],no positive outcomes were observed
same,sialidase activity in the cytoplasm,[6],only slightly decreased
"O=C(CO)N[C@H]1[C@H]([C@H](O)[C@H](O)CO)OC(C(=O)O)=C[C@@H]1O [Neu5Gc2en, reference compound]",antiviral activity against HCoV-OC43 (viral transcripts and viral titer),[1],did not inhibit HCoV-OC43 replication
same,protection activity (cell viability post SARS-CoV-2 infection),[2],could not protect
same,cell surface sialidase activity,[6]; [14],targets sialidase on cell surface
